According to patent publication US7238689B2, “Isoxazoline derivative and herbicide comprising the same as active ingredient” (Ihara Chemical Industry Co., Ltd., priority 2001, dated 2007):

Experiments:
[1] = tested on: Echinochloa crus-galli (L.) Beauv. var. crusgalli; experiment: Herbicidal effect by upland field soil treatment; assay type: in vivo; set-up: scale not given here; settings: active ingredient 1000 g/ha, examined at 21st day from treatment
Text: (§1) An upland field soil was filled in a plastic pot of 80 cm^2. Seeds of Echinochloa crus-galli (L.) Beauv. var. crusgalli and Setaria viridis (L.) Beauv. were sowed, followed by covering with the same soil. […] Then, breeding was made in a greenhouse, and the herbicidal effect of each wettable powder was examined at the 21st day from the treatment in accordance with the standard shown in Table 21.

[2] = tested on: Setaria viridis (L.) Beauv.; experiment: Herbicidal effect by upland field soil treatment; assay type: in vivo; set-up: scale not given here; settings: active ingredient 1000 g/ha, examined at 21st day from treatment
Text: as §1

[3] = tested on: Echinochloa oryzicola Vasing; experiment: Herbicidal effect by paddy field soil treatment; assay type: in vivo; set-up: scale not given here; settings: wettable powder, active ingredient 1000 g/ha, examined at the 21st day from the treatment
How it was run: (§2)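 Seeds sown in puddled paddy soil under 3 cm of water; the next day wettable powders diluted in water were dropped onto the water surface at 1,000 g active ingredient/ha. Plants grown in a greenhouse, with herbicidal effect scored on day 21 against a rating standard.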

[4] = tested on: Monochoria vaginalis (Murm. f.) Presl var. plantaginea (Roxb.) Solms-Laub.; experiment: Herbicidal effect by paddy field soil treatment; assay type: in vivo; set-up: scale not given here; settings: wettable powder, active ingredient 1000 g/ha, examined at the 21st day from the treatment
How it was run: as §2

[5] = tested on: Setaria viridis (L.) Beauv.; experiment: Herbicidal effect by upland foliage treatment; assay type: in vivo; set-up: scale not given here; settings: active ingredient 1000 g/ha, examined at 14th day from treatment
How it was run: (§3)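 Two-week-old greenhouse plants in sand were sprayed over the whole foliage with water-diluted wettable powder at 1,000 liters per hectare, giving 1,000 g active ingredient per hectare. Herbicidal effect scored on a rating standard at day 14 after treatment.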

[6] = tested on: Echinochloa crus-galli (L.) Beauv. var. crus-galli; experiment: Herbicidal effect by upland foliage treatment; assay type: in vivo; set-up: scale not given here; settings: active ingredient 1000 g/ha, examined at 14th day from treatment
How it was run: as §3

Compound | melting point [°C] | herbicidal effect (index per standard of Table 21), Echinochloa curs-galli (L.) Beauv. Var. crus-galli [1] | herbicidal effect (index per standard of Table 21), Setaria viridis (L.) Beauv. [2] | Herbicidal effect index, Echinochloa oryzicola Vasing [3] | Herbicidal effect index, Monochoria vaginalis (Burm. F.) Presl var. plantaginea (Roxb.) Solms-Laub. [4] | herbicidal effect (index per standard of Table 21), Setaria viridis (L.) Beauv. [5] | herbicidal effect (index per standard of Table 21), Echinochloa curs-galli (L.) Beauv. Var. crus-galli [6]
CC1(C)CC(S(=O)(=O)Cc2c(C(F)(F)F)nn(-c3ccccc3)c2Cl)=NO1 [3-0002, 3-(5-chloro-1-phenyl-3-trifluoromethyl-1H-pyrazol-4-ylmethylsulfonyl)-5,5-dimethyl-2-isoxazoline] | 132 to 133 | 5 | 5 | 5 | 5 |  | 
CCS(=O)(=O)c1c(CS(=O)(=O)C2=NOC(C)(C)C2)c(C(F)(F)F)nn1-c1ccccc1 [3-0004, 5,5-dimethyl-3-(5-ethylsulfonyl-1-phenyl-3-trifluoromethyl-1H-pyrazol-4-ylmethylsulfonyl)-2-isoxazoline] | 158 to 160 | 5 | 5 | 5 | 5 |  | 
CC1(C)CC(SCc2c(C(F)(F)F)nn(C(F)F)c2Cl)=NO1 [3-0008, 3-(5-chloro-1-difluoromethyl-3-trifluoromethyl-1H-pyrazol-4-ylmethylthio)-5,5-dimethyl-2-isoxazoline] | 41 to 42 | 5 | 5 |  |  | 4 | 4
CC1(C)CC(SCc2c(Cl)nn(C(F)F)c2C(F)(F)F)=NO1 [3-0009, 3-(3-chloro-1-difluoromethyl-5-trifluoromethyl-1H-pyrazol-4-ylmethylthio)-5,5-dimethyl-2-isoxazoline] | 89 to 90 | 5 | 5 | 5 | 5 |  | 
Cn1nc(C(F)(F)F)c(CS(=O)(=O)C2=NOC(C)(C)C2)c1Oc1ccccc1Cl [3-0014, 3-(5-(2-chlorophenoxy)-1-methyl-3-trifluoromethyl-1H-pyrazol-4-ylmethylsulfonyl)-5,5-dimethyl-2-isoxazoline] | 67 to 70 |  |  | 5 | 5 |  | 
Cn1nc(C(F)(F)F)c(CS(=O)(=O)C2=NOC(C)(C)C2)c1OC1CCCC1 [3-0015, 3-(5-cyclopentyloxy-1-methyl-3-trifluoromethyl-1H-pyrazol-4-ylmethylsulfonyl)-5,5-dimethyl-2-isoxazoline] | 113 to 114 | 5 | 5 | 5 | 5 | 4 | 5

Second part, led by results:

melting point [°C] | Compound | herbicidal effect (index per standard of Table 21), Echinochloa curs-galli (L.) Beauv. Var. crus-galli [1] | herbicidal effect (index per standard of Table 21), Setaria viridis (L.) Beauv. [2] | Herbicidal effect index, Echinochloa oryzicola Vasing [3] | Herbicidal effect index, Monochoria vaginalis (Burm. F.) Presl var. plantaginea (Roxb.) Solms-Laub. [4] | herbicidal effect (index per standard of Table 21), Setaria viridis (L.) Beauv. [5] | herbicidal effect (index per standard of Table 21), Echinochloa curs-galli (L.) Beauv. Var. crus-galli [6]
95 to 96 | CON=C(C)c1c(C)sc(C)c1CS(=O)(=O)C1=NOC(C)(C)C1 [2-0001, 5,5-dimethyl-3-[2,5-dimethyl-4-(1-methoxyiminoethyl)-thiophen-3-ylmethylsulfonyl]-2-isoxazoline] | 5 | 5 | 5 | 5 | 4 | 5
126 to 127 | CC1(C)CC(S(=O)(=O)Cc2c(C(F)(F)F)nn(C(F)F)c2Cl)=NO1 [3-0010, 3-(5-chloro-1-difluoromethyl-3-trifluoromethyl-1H-pyrazol-4-ylmethylsulfonyl)-5,5-dimethyl-2-isoxazoline] |  |  |  |  | 4 | 5
136 to 137 | CC1(C)CC(S(=O)(=O)Cc2c(Cl)nn(C(F)F)c2C(F)(F)F)=NO1 [3-0011, 3-(3-chloro-1-difluoromethyl-5-trifluoromethyl-1H-pyrazol-4-ylmethylsulfonyl)-5,5-dimethyl-2-isoxazoline] |  |  |  |  | 4 | 5
113 to 114 | COc1c(CS(=O)(=O)C2=NOC(C)(C)C2)c(C(F)(F)F)nn1C [3-0013, 5,5-dimethyl-3-(5-methoxy-1-methyl-3-trifluoromethyl-1H-pyrazol-4-ylmethylsulfonyl)-2-isoxazoline] | 5 | 5 | 5 | 5 | 5 | 5
105 to 108 | Cn1nc(C(F)(F)F)c(CS(=O)(=O)C2=NOC(C)(C)C2)c1C#N [3-0016, 3-(5-cyano-1-methyl-3-trifluoromethyl-1H-pyrazol-4-ylmethylsulfonyl)-5,5-dimethyl-2-isoxazoline] | 5 | 5 | 5 | 5 |  | 
78 to 79 | Cn1nc(C(F)F)c(CS(=O)(=O)C2=NOC(C)(C)C2)c1Cl [3-0018, 3-(5-chloro-3-difluoromethyl-1-methyl-1H-pyrazol-4-ylmethylsulfonyl)-5,5-dimethyl-2-isoxazoline] | 5 | 5 |  |  |  | 
151 to 152 | CC1(C)CC(S(=O)(=O)Cc2c(C(F)(F)F)nn3c2OCCC3)=NO1 [3-0019, 3-(5,5-dimethyl-2-isoxazolin-3-ylsulfonylmethyl)-2-trifluoromethyl-6,7-dihydro-5H-pyrazolo[5,1-b][1,3]oxazine] | 5 | 5 |  |  |  | 
